One series addresses MSA (Mus musculus, UniProt P07724). Put plainly: Formation of albumin-prodrug conjugate with MSA (SDS-PAGE). It is filed as binding. To be noted: 1 h; for formation of conjugate with MSA (SDS-PAGE band shift to 50-75 kDa): 1% MSA in PBS, room temperature. The procedure:
(§1) To this end, a PBS solution (1 ml) containing 1% albumin (HSA, MSA or BSA) or 1% blocked albumin (blocked HSA, MSA or BSA) was added to 1 mg of the prodrug (Al-ProD) synthesized in Example 1 and incubated at room temperature for various times (0 h, 5 min, and 1 h). After completion of the incubation, samples were analyzed via SDS-PAGE and MALDI-TOF mass spectrometry.
(§2) τ-maleimido butyric acid was added to 1% albumin (HSA, MSA or BSA) for 1 h to block the thiol group of the albumin. In the “Blocking” row in the table of FIG. 5, the plus signs (+) represent the use of blocked albumin.

Another series has as its target HSA (Homo sapiens, UniProt P02768). Description: Formation of albumin-prodrug conjugate with HSA (SDS-PAGE, MALDI-TOF, RP-HPLC). Format: binding. To be noted: for formation of conjugate with HSA (SDS-PAGE band shift to 50-75 kDa): 1% HSA in PBS. The procedure: as §1, §2
The test system of series [1] is MDA-MB-231 cancer tissues. Description: Anticancer efficacy in MDA-MB-231 cancer animal models. Format: in vivo, BALB/c nude mice. To be noted: for survival / cancer volume: equimolar to 3 mg/kg doxorubicin, tail vein; for cancer volume: FIG. 21, day not given. The procedure:
(§3) Specifically, all animal experiments were conducted in accordance with the guidelines approved by the Institutional Animal Care and Use Committee of Korea Institute of Science and Technology (KIST). BALB/c nude mice (5.5 weeks old, 20-25 g, male) purchased from Nara Bio INC (Gyeonggi-do, Korea) were used as animal models. 1×10^7 MDA-MB-231 cells were inoculated into the left thigh of each of the mice (n=6) to construct establish a cancer animal model. 5 weeks after inoculation, experiments were conducted when cancer volumes were 250-300 mm^3.
(§4) Changes in body weight and cancer tissue volume of each group were measured and survivals were analyzed every two days from immediately after injection (day 0). The cancer tissue volume (V; mm^3) was calculated as 0.53 × largest diameter × (smallest diameter)^2. After 20 days, each group was euthanized. Major organs (liver, lung, spleen, kidney, and heart) and cancer tissues were excised and sliced into 10 µm thick sections for histological assays.
(§5) Specifically, the tissues were fixed with 10% formalin, embedded in paraffin, and sectioned to a thickness of 10 µm. The tissue sections were stained with H&E, terminal deoxynucleotidyl transferase dUTP nick-end labeling (TUNEL), and 4,6-diamidino-2-phenylindole (DAPI, Sigma-Aldrich). Structural changes and toxicities in the tissue sections were evaluated using a ZEISS light microscope or fluorescence microscope.
(§6) Significance was indicated by *P < 0.05, **P < 0.01, ***P < 0.001.

Series [2] concerns MDA-MB-231 cancer tissues. Description: Tumor accumulation by NIRF imaging and CLSM in cancer animal models. Format: in vivo, BALB/c nude mice. The procedure:
(§7) All animal experiments were conducted in accordance with the guidelines approved by the Institutional Animal Care and Use Committee of Korea Institute of Science and Technology (KIST). BALB/c nude mice (5.5 weeks old, 20-25 g, male) purchased from Nara Bio INC (Gyeonggi-do, Korea) were used as animal models. 1×10^7 MDA-MB-231 cells were inoculated into the left thigh of each of the mice (n=6) to construct establish a cancer animal model. 5 weeks after inoculation, experiments were conducted when cancer volumes were 250-300 mm^3.
(§8) After administration of the drugs, noninvasive near-infrared fluorescence (NIRF) imaging data were obtained using an in vivo fluorescence imaging system (IVIS Luminar III) to assess the in vivo tumor accumulation of the prodrug (Al-ProD). The areas under the curves of the time-concentration curves (AUCs) corresponding to the near-infrared data were calculated using Origin 2020 software.
Animal models were sacrificed 12 h after injection of the drugs and organs (liver, lung, spleen, kidney, and heart) and cancer tissues were excised therefrom. The amounts of the drugs remaining in the major organs and cancer tissues were calculated via fluorescence imaging using IVIS Luminar III. The fluorescence intensities were quantified using the Living Image software (PerkinElmer, USA) and plotted.
The organs and cancer tissues excised from the animal models were sliced into 10 µm thick sections and treated with DAPI solution for 10 min to stain the cell nuclei blue. The fluorescence of DOX or DAPI from the sections was observed using a confocal laser scanning microscope (CLSM).
as §6

A short description of a further series: FIG. 16. From the text:
Table printed on a drawing sheet, FIG. 16
First reader's note: The table stands beside a plasma concentration (%) versus time plot; the AUC cells hold the value ± its error and no AUC unit is printed.

A further series addresses BSA (Bos taurus, UniProt P02769). Put plainly: Formation of albumin-prodrug conjugate with BSA (SDS-PAGE). Particulars: 1 h; for formation of conjugate with BSA (SDS-PAGE band shift to 50-75 kDa): 1% BSA in PBS, room temperature. It is filed as binding, bovine. The procedure: as §1, §2
Series [3] can be described thus: Pharmacokinetics after intravenous administration to cancer animal models. Format: in vivo, BALB/c nude mice. The procedure:
as §7, §8, §6

The nature of series [4]: Toxicity (body weight, organ histology) in cancer animal models. It is filed as in vivo, BALB/c nude mice. The procedure: as §3, §4, §5, §6
Series [5] relates to rat cardiomyocytes (H9C2). Put plainly: Intracellular behavior of DOX by CLSM in normal cells. Format: cell-based. To be noted: H9C2, 2 µM, 48 h. The procedure:
(§9) 2×10^4 cancer cells (breast cancer cells (MDA-MB-231)) and normal cells (H9C2) were seeded in cell culture plates for confocal microscopy. As a control, MDA-MB-231 cells were treated and incubated with Cat-B-inhibitory siRNA for 24 h to inhibit the expression of cathepsin B (“MDA-MB-231 (+Cat-B inhibitor)”). […] Then, cells were washed with Dulbecco’s phosphate buffered saline (DPBS) to remove residual drug. Cells were treated with a cell fixative for 15 min and nuclei were stained blue by treatment with a DAPI solution for 10 min.

For series [6], the system named is breast cancer cells (MDA-MB-231). Description: Intracellular behavior of DOX by CLSM in breast cancer cells. Format: cell-based. To be noted: MDA-MB-231, 2 µM, 48 h. The procedure: as §9
Series [7] has as its system rat cardiomyocytes (H9C2). Description: Cytotoxicity (CCK-8) in normal cells. Format: cell-based. To be noted: 48 h. The procedure:
(§10) An in vitro cell experiment was conducted using breast cancer cells (MDA-MB-231) and rat cardiomyocytes (H9C2) to determine the cancer cell-specific cytotoxicity of the albumin-prodrug conjugate (Al-ProD+HSA). Specifically, cells were cultured and maintained in Dulbecco’s modified Eagle’s medium (DMEM) supplemented with 10% fetal bovine serum (FBS) and 1% penicillin/streptomycin in a humid atmosphere at 5% CO2 and 95% air and at 37° C. […]
(§11) Cancer cells (breast cancer cells (MDA-MB-231)) or normal cells (H9C2) were seeded at a density of 2×10^4/well in 96-well cell culture plates. […] Then, each well was treated with […] of CCK solution, followed by incubation for 30 min. The absorbance of each 96-well plate was analyzed using a microplate reader (VERSAmax™, Molecular Devices Corp., Sunnyvale, CA) at 450 nm.

In series [8] the test system is breast cancer cells (MDA-MB-231). Put plainly: Cytotoxicity (CCK-8) in breast cancer cells. To be noted: MDA-MB231 cells, 48 h. It is filed as cell-based. The procedure: as §10, §11
Where [9] appears, read: equimolar to 3 mg/kg doxorubicin, tail vein.

No end group written: not given here. DOX = doxorubicin Some results are limits rather than exact numbers.

Sequence of BSA (P02769 25-607): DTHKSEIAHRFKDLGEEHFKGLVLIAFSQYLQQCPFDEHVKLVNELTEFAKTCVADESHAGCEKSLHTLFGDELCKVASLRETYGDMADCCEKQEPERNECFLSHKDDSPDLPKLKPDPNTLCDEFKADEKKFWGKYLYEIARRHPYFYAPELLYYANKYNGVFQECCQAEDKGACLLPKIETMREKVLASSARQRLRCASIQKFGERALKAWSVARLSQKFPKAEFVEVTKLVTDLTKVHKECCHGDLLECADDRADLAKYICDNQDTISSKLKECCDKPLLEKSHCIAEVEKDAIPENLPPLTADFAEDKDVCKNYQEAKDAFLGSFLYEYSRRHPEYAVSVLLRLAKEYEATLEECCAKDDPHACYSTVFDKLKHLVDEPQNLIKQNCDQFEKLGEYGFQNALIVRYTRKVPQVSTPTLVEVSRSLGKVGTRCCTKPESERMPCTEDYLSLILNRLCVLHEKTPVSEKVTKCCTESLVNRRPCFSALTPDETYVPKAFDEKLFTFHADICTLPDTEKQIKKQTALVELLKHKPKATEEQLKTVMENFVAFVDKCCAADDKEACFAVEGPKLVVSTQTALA
Sequence of MSA (P07724 25-608): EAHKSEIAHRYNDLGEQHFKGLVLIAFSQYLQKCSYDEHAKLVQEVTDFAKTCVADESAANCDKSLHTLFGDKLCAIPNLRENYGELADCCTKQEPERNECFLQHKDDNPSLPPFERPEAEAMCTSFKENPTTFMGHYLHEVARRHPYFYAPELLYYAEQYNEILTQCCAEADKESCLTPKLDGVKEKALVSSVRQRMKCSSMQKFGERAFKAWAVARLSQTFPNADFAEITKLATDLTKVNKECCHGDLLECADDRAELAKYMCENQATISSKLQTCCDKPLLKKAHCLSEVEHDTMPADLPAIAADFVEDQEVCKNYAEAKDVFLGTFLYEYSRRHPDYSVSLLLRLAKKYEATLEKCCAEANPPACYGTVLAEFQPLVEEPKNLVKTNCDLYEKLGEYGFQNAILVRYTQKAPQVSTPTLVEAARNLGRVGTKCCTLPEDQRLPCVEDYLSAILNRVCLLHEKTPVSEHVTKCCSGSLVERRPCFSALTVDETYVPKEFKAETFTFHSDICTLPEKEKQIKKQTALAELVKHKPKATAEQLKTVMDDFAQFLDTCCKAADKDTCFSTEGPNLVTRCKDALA

The half-life is how long it takes for the measured level to halve. On to `COc1cccc2c1C(=O)c1c(O)c3c(c(O)c1C2=O)CC(O)(C(=O)CO)CC3OC1CC(NC(=O)CNC(=O)C(CCCNC(=N)N)NC(=O)C(CCCNC(=N)N)NC(=O)C(Cc2ccccc2)NC(=O)CCOCCOCCNC(=O)CCN2C(=O)C=CC2=O)C(O)C(C)O1` (stereo not drawn) [Al-ProD], for which the “formation of conjugate with MSA (SDS-PAGE band shift to 50-75 kDa)” value on MSA was “formed a conjugate with each albumin”. The “formation of conjugate with blocked MSA (SDS-PAGE)” value at MSA (thiol group of albumin blocked) is on record as “failed to form a conjugate with the blocked albumin”. In addition, at HSA (room temperature, 1 h), the “formation of conjugate with HSA (SDS-PAGE band shift to 50-75 kDa)” value is recorded as “formed a conjugate with each albumin”. In addition, the “time to completion of conjugate formation with HSA” value on HSA (RP-HPLC, room temperature) was not above 5 min. Besides, at HSA (RP-HPLC, up to 60 min), the “conjugate formation with thiol-blocked HSA” value is reported as “not formed for 60 min”. Besides, on HSA (thiol group of albumin blocked, 1 h), the “formation of conjugate with blocked HSA (SDS-PAGE)” value is “failed to form a conjugate with the blocked albumin”. For the same molecule, the “H&E and TUNEL staining of cancer tissues” value in series [1] (day 20) was “induced significant damage to and apoptosis of cancer tissues”. In series [1], the survival result is recorded as “over 25 days” and the cancer volume is recorded as 347.42 ± 25.9 mm^3. Also, the “accumulation / retention in cancer tissues (NIRF imaging)” value in [2] (0-72 h) is “a considerable quantity of DOX was retained in cancer tissues even after 72 h”. In [2] (0-72 h after intravenous administration), the “fluorescence from cancer tissues relative to free DOX group (NIRF in vivo)” value was 3.33-4.08 fold. Further, in series [2] (DAPI-stained sections), the “DOX in excised cancer tissue sections (CLSM)” value was “strong DOX fluorescence from cancer tissues”. Moreover, the “DOX fluorescence from excised cancer tissues relative to free DOX group” value in series [2] (ex vivo, 12 h after intravenous administration) is 3.41-4.92 fold. Further, in “FIG. 16”, the “T1/2” value was 3.1 h. In addition, the “formation of conjugate with BSA (SDS-PAGE band shift to 50-75 kDa)” value at BSA is recorded as “formed a conjugate with each albumin”. In addition, the “formation of conjugate with blocked BSA (SDS-PAGE)” value on BSA (thiol group of albumin blocked) is given as “failed to form a conjugate with the blocked albumin”. Moreover, the “extension of in vivo half-life” value in series [3] (by binding to albumin in vivo) is given as “at least 3 times”. Further, the “time remained in vivo” value in series [3] (setting [9]) is 50 to 150 h. Besides, the half-life in series [3] (male, BALB/c nude, mouse, in vivo, 3 mg/kg, read-out: half-life (T½ (h))) was not below 3 h. Besides, the “extension of in vivo residence time compared to the simple anticancer drug” value in [3] (vs free DOX) was “at least 12 times”. In series [3] (vs free DOX 3 mg/kg), the “increase of area under the curve (AUC) compared to free DOX” value is recorded as 7 fold. The “H&E staining of normal tissues (heart, lung, liver, kidney, and spleen)” value in series [4] (day 20) is recorded as “no significant damage”. Moreover, in series [4] (setting [9]), the “change in body weight” value is “no significant changes”.

With `COc1cccc2c1C(=O)c1c(O)c3c(c(O)c1C2=O)C[C@@](O)(C(=O)CO)C[C@@H]3O[C@H]1C[C@H](N)[C@H](O)[C@H](C)O1` [Free DOX], the “T1/2” value in “FIG. 16” was determined as 0.25 h.

Regarding `COc1cccc2c1C(=O)c1c(O)c3c(c(O)c1C2=O)C[C@@](O)(C(=O)CO)C[C@@H]3O[C@H]1C[C@H](N)[C@H](O)[C@H](C)O1` [free DOX, doxorubicin, reference compound], the “intracellular location of DOX fluorescence” value was “penetrated the nuclei of both cancer cells and normal cells” in series [5]; “penetrated the nuclei of both cancer cells and normal cells” in [6]. Also, in series [1] (death from systemic toxicity), the “day on which more than half of the animals had died” value is 15 days. The survival in series [1] was not above 18 days. This molecule also gave a cancer volume in series [1] of 580.25 ± 139.92 mm^3. For the same molecule, the “DOX in excised cancer tissue sections (CLSM)” value in series [2] (mouse, in vivo) was “a very small quantity”. The cytotoxicity entry in series [7] and in series [8] was “significant cytotoxicities” throughout. Also, the “H&E staining of normal tissues (heart, lung, liver, kidney, and spleen)” value in series [4] (mouse, in vivo) was “significant structural abnormalities were observed in all tissues”.

For the molecule “FRRG(SEQ ID NO: 1)-DOX (FRRG-{DOX}) [reference compound]”, in the series with MSA, the “formation of conjugate with MSA (SDS-PAGE band shift to 50-75 kDa)” value is reported as “did not form conjugates with any albumin”. Besides, in the series with HSA (room temperature, 1 h), the “formation of conjugate with HSA (SDS-PAGE band shift to 50-75 kDa)” value is recorded as “did not form conjugates with any albumin”. For the same molecule, the “formation of conjugate with BSA (SDS-PAGE band shift to 50-75 kDa)” value in the series with BSA is “did not form conjugates with any albumin”.
